Results published in PubChem BioAssay (NCI).
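GI50 = concentration required for 50% inhibition of growth. TGI: total growth inhibition.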

Assays:
Assay in all cases: growth of human tumour cells (NCI), 384-well format
[1] = system: 786-0 renal
[2] = system: A498 renal
[3] = system: A549 NSCLC
[4] = system: ACHN renal
[5] = system: BT-549 breast
[6] = system: CAKI-1 renal
[7] = system: CCRF-CEM leukemia
[8] = system: COLO 205 colon
[9] = system: DU-145 prostate
[10] = system: EKVX NSCLC
[11] = system: HCC-2998 colon
[12] = system: HCT-116 colon
[13] = system: HCT-15 colon
[14] = system: HL-60(TB) leukemia
[15] = system: HOP-62 NSCLC
[16] = system: HOP-92 NSCLC
[17] = system: HS 578T breast
[18] = system: HT29 colon
[19] = system: IGROV1 ovarian
[20] = system: K-562 leukemia
[21] = system: KM12 colon
[22] = system: LOX IMVI melanoma
[23] = system: M14 melanoma
[24] = system: MALME-3M melanoma
[25] = system: MCF7 breast
[26] = system: MDA-MB-231 breast
[27] = system: MDA-MB-435 melanoma
[28] = system: MDA-MB-468 breast
[29] = system: MOLT-4 leukemia
[30] = system: NCI-H226 lung
[31] = system: NCI-H23 lung
[32] = system: NCI-H322M lung
[33] = system: NCI-H460 NSCLC
[34] = system: NCI-H522 lung
[35] = system: NCI/ADR-RES ovarian
[36] = system: OVCAR-3 ovarian
[37] = system: OVCAR-4 ovarian
[38] = system: OVCAR-5 ovarian
[39] = system: OVCAR-8 ovarian
[40] = system: PC-3 prostate
[41] = system: RPMI-8226 leukemia
[42] = system: RXF 393 renal
[43] = system: SF-268 CNS
[44] = system: SF-295 CNS
[45] = system: SF-539 CNS
[46] = system: SK-MEL-28 melanoma
[47] = system: SK-MEL-5 melanoma
[48] = system: SK-OV-3 ovarian
[49] = system: SN12C renal
[50] = system: SNB-19 CNS
[51] = system: SNB-75 CNS
[52] = system: SW-620 colon
[53] = system: T-47D breast
[54] = system: TK-10 renal
[55] = system: U251 glioblastoma
[56] = system: UACC-62 melanoma
[57] = system: UO-31 renal

In the case of `Cn1ccc(S(=O)(=O)N2CCC[C@H](Nc3nccc(-c4c(-c5cccc(O)c5)nc5occn45)n3)C2)n1`, the GI50 [1] is reported as 7.2 µM, the TGI [1] is reported as 32.5 µM and the GI50 [2] is reported as 3.82 µM. For the same compound, the TGI [2] was 17.2 µM, the GI50 [3] was 11.9 µM and the TGI [3] was 25.2 µM. The GI50 [4] was 7.99 µM, the TGI [4] was 35.8 µM and the GI50 [5] was 7.47 µM. It also gave a TGI [5] of 21.8 µM, a GI50 [6] of 4.38 µM and a TGI [6] of 19.3 µM. The GI50 [7] was 2.32 µM, the TGI [7] was 4.7 µM and the GI50 [8] was < 0.01 µM. It also gave a TGI [8] of 20.2 µM, a GI50 [9] of 14.4 µM and a TGI [9] of 33.8 µM. It also gave a GI50 [10] of 4.71 µM, a TGI [10] of 17.5 µM and a GI50 [11] of 4.05 µM. For the same compound, the TGI [11] was 11.2 µM, the GI50 [12] was 3.59 µM and the TGI [12] was 16.4 µM. It also gave a GI50 [13] of 14.2 µM, a TGI [13] of 35.7 µM and a GI50 [14] of 8.06 µM. It also gave a TGI [14] of 20.1 µM, a GI50 [15] of 10.4 µM and a TGI [15] of 30.7 µM. For the same compound, the GI50 [16] was 5.55 µM, the TGI [16] was 26.4 µM and the GI50 [17] was 3.33 µM. For the same compound, the TGI [17] was 15.8 µM, the GI50 [18] was 0.325 µM and the TGI [18] was 13.7 µM. The GI50 [19] was 4.14 µM, the TGI [19] was 17 µM and the GI50 [20] was 7.07 µM. For the same compound, the TGI [20] was 41.4 µM, the GI50 [21] was 15.1 µM and the TGI [21] was 35.5 µM. For the same compound, the GI50 [22] was 1.24 µM, the TGI [22] was 2.83 µM and the GI50 [23] was < 0.01 µM. The TGI [23] was 1.15 µM, the GI50 [24] was < 0.01 µM and the GI50 [25] was 6.67 µM. For the same compound, the TGI [25] was 19.9 µM, the GI50 [26] was 2.04 µM and the TGI [26] was 23.6 µM. For the same compound, the GI50 [27] was 0.0187 µM, the TGI [27] was 21.5 µM and the GI50 [28] was 5.59 µM. For the same compound, the TGI [28] was 18.5 µM, the GI50 [29] was 5.62 µM and the TGI [29] was 17.1 µM. The GI50 [30] was 11.2 µM, the TGI [30] was 37.8 µM and the GI50 [31] was 3.95 µM. The TGI [31] was 17.8 µM, the GI50 [32] was 10.1 µM and the TGI [32] was 35.9 µM. It also gave a GI50 [33] of 12.1 µM, a TGI [33] of 26.3 µM and a GI50 [34] of 15.1 µM. The TGI [34] was 29.5 µM, the GI50 [35] was > 100 µM and the TGI [35] was > 100 µM. For the same compound, the GI50 [36] was 6.66 µM, the TGI [36] was 19.2 µM and the GI50 [37] was 20.2 µM. For the same compound, the TGI [37] was 46 µM, the GI50 [38] was 11.9 µM and the TGI [38] was 38.4 µM. It also gave a GI50 [39] of 13.3 µM, a TGI [39] of 36.9 µM and a GI50 [40] of 8.79 µM. The TGI [40] was 34 µM, the GI50 [41] was 10.5 µM and the TGI [41] was 22.4 µM. It also gave a GI50 [42] of 5.61 µM, a TGI [42] of 19.2 µM and a GI50 [43] of 3.65 µM. The TGI [43] was 13.8 µM, the GI50 [44] was 20.2 µM and the TGI [44] was 43.5 µM. For the same compound, the GI50 [45] was 12.6 µM, the TGI [45] was 25.5 µM and the GI50 [46] was < 0.01 µM. The TGI [46] was 0.602 µM, the GI50 [47] was 0.0669 µM and the TGI [47] was 14 µM. It also gave a GI50 [48] of 6.83 µM, a TGI [48] of 23.6 µM and a GI50 [49] of 8.01 µM. For the same compound, the TGI [49] was 30.7 µM, the GI50 [50] was 27.1 µM and the TGI [50] was > 100 µM. It also gave a GI50 [51] of 4.98 µM, a TGI [51] of 31.7 µM and a GI50 [52] of 11.6 µM. For the same compound, the TGI [52] was 25.5 µM, the GI50 [53] was 11.1 µM and the TGI [53] was 23.4 µM. It also gave a GI50 [54] of 11.3 µM, a TGI [54] of 48.2 µM and a GI50 [55] of 12.2 µM. The TGI [55] was 26.5 µM, the GI50 [56] was < 0.01 µM and the GI50 [57] was 1.64 µM. It also gave a TGI [57] of 22 µM.

With `CCNCCS(=O)(=O)NC[C@@]1(c2ccccc2)SC(NC(=O)C(C)(C)C)=NN1C(=O)C(C)(C)C` the GI50 [1] was < 0.01 µM, the TGI [1] was 28.6 µM and the GI50 [2] was < 0.01 µM. For the same compound, the TGI [2] was > 100 µM, the GI50 [3] was < 0.01 µM and the TGI [3] was > 100 µM. The GI50 [4] was 52.6 µM, the TGI [4] was > 100 µM and the GI50 [5] was < 0.01 µM. For the same compound, the TGI [5] was 58.9 µM, the GI50 [6] was 0.0427 µM and the TGI [6] was > 100 µM. For the same compound, the GI50 [7] was < 0.01 µM, the TGI [7] was < 0.01 µM and the GI50 [8] was < 0.01 µM. The TGI [8] was < 0.01 µM, the GI50 [9] was < 0.01 µM and the TGI [9] was > 100 µM. For the same compound, the GI50 [10] was < 0.01 µM, the TGI [10] was > 100 µM and the GI50 [11] was < 0.01 µM. For the same compound, the TGI [11] was 24.6 µM, the GI50 [12] was < 0.01 µM and the TGI [12] was > 100 µM. For the same compound, the GI50 [13] was 0.108 µM, the TGI [13] was > 100 µM and the GI50 [14] was < 0.01 µM. For the same compound, the TGI [14] was < 0.01 µM, the GI50 [15] was < 0.01 µM and the TGI [15] was 75.6 µM. The GI50 [16] was < 0.01 µM, the TGI [16] was 62 µM and the GI50 [18] was < 0.01 µM. For the same compound, the TGI [18] was < 0.01 µM, the GI50 [19] was < 0.01 µM and the TGI [19] was > 100 µM. For the same compound, the GI50 [21] was < 0.01 µM, the TGI [21] was > 100 µM and the GI50 [22] was < 0.01 µM. For the same compound, the TGI [22] was 22.4 µM, the GI50 [23] was < 0.01 µM and the TGI [23] was < 0.01 µM. For the same compound, the GI50 [25] was < 0.01 µM, the TGI [25] was 42.7 µM and the GI50 [28] was < 0.01 µM. For the same compound, the TGI [28] was < 0.01 µM, the GI50 [29] was < 0.01 µM and the TGI [29] was < 0.01 µM. The GI50 [30] was 74.6 µM, the TGI [30] was > 100 µM and the GI50 [33] was < 0.01 µM. For the same compound, the TGI [33] was < 0.01 µM, the GI50 [35] was 3.42 µM and the TGI [35] was > 100 µM. For the same compound, the GI50 [36] was < 0.01 µM, the TGI [36] was < 0.01 µM and the GI50 [37] was 29.5 µM. The TGI [37] was > 100 µM, the GI50 [38] was < 0.01 µM and the TGI [38] was > 100 µM. The GI50 [39] was < 0.01 µM, the TGI [39] was > 100 µM and the GI50 [40] was < 0.01 µM. The TGI [40] was > 100 µM, the GI50 [41] was < 0.01 µM and the TGI [41] was < 0.01 µM. For the same compound, the GI50 [43] was < 0.01 µM, the TGI [43] was < 0.01 µM and the GI50 [44] was 0.0177 µM. The TGI [44] was > 100 µM, the GI50 [51] was < 0.01 µM and the TGI [51] was 48.7 µM. The GI50 [52] was < 0.01 µM, the TGI [52] was 62.6 µM and the GI50 [54] was 26.4 µM. The TGI [54] was > 100 µM, the GI50 [55] was < 0.01 µM and the TGI [55] was > 100 µM. The GI50 [56] was < 0.01 µM, the TGI [56] was > 100 µM and the GI50 [57] was 63.3 µM. For the same compound, the TGI [57] was > 100 µM.
